The compounds below were run against T1, Adenylate cyclase type 1 (Homo sapiens, UniProt Q08828) (assay: (§1) Inhibition of [125 I]6-IHPP-forskolin binding to adenylate cyclase 1). Conditions: not given.
Target sequence in this assay (Q08828 whole entry): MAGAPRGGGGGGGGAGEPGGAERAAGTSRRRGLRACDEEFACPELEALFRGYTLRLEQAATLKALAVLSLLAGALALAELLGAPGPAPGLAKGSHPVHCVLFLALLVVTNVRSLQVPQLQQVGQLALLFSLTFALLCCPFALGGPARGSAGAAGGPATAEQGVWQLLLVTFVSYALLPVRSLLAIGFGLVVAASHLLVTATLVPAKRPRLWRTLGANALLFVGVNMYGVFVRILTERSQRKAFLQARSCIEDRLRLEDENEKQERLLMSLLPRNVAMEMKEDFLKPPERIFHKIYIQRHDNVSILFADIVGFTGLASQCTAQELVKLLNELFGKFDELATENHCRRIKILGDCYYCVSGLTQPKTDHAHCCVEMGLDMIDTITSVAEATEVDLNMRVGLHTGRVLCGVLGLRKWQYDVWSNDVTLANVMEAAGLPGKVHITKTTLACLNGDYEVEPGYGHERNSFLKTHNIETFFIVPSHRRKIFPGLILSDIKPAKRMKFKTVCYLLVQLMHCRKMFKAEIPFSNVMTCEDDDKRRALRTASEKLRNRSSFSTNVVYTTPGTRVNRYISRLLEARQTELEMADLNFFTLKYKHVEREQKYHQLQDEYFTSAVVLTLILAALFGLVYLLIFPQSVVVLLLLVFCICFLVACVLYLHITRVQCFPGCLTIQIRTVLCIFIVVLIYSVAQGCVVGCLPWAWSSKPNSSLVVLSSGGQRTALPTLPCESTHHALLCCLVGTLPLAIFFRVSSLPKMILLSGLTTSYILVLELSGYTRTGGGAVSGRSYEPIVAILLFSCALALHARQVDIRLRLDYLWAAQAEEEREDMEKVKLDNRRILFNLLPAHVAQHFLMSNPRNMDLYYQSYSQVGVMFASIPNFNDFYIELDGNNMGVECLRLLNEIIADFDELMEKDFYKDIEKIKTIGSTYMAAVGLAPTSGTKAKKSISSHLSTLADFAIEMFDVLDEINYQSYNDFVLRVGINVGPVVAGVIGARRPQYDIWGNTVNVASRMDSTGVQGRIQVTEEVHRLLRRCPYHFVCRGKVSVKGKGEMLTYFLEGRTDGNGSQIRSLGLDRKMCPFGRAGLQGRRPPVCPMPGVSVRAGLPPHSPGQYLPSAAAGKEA

Row | Compound | IC50
1 | C=C[C@@]1(C)CC(=O)[C@]2(O)[C@@]3(C)[C@@H](O)CCC(C)(C)[C@@H]3[C@H](O)[C@H](OC(=O)NCCc3ccc(N)cc3)[C@@]2(C)O1 | < 150 nM
2 | C=C[C@@]1(C)CC(=O)[C@]2(O)[C@@]3(C)[C@@H](O)CCC(C)(C)[C@@H]3[C@H](O)[C@H](OC(=O)NCCc3ccccc3)[C@@]2(C)O1 | > 150 nM
3 | C=C[C@@]1(C)CC(=O)[C@]2(O)[C@@]3(C)[C@@H](O)CCC(C)(C)[C@@H]3[C@H](OC(=O)NCC3CCCCC3)[C@H](OC(C)=O)[C@@]2(C)O1 | > 150 nM
4 | C=CCNC(=O)O[C@H]1[C@H]2C(C)(C)CC[C@H](O)[C@]2(C)[C@@]2(O)C(=O)C[C@](C)(C=C)O[C@]2(C)[C@H]1OC(C)=O | < 150 nM
5 | C=C[C@@]1(C)CC(=O)[C@]2(O)[C@@]3(C)[C@@H](O)CCC(C)(C)[C@@H]3[C@H](O)[C@H](OC(=O)NCC(C)C)[C@@]2(C)O1 | < 150 nM

More lines, now with the values ahead:

Row | IC50 | Compound
6 | > 150 nM | C=C[C@@]1(C)CC(=O)[C@]2(O)[C@@]3(C)[C@@H](O)CCC(C)(C)[C@@H]3[C@H](O)[C@H](OC(=O)NCCN(C)C)[C@@]2(C)O1
7 | > 150 nM | C=C[C@@]1(C)CC(=O)[C@]2(O)[C@@]3(C)[C@@H](O)CCC(C)(C)[C@@H]3[C@H](O)[C@H](OC(=O)NCCN3CCCCC3)[C@@]2(C)O1
8 | > 150 nM | C=C[C@@]1(C)CC(=O)[C@]2(O)[C@@]3(C)[C@@H](O)CCC(C)(C)[C@@H]3[C@H](O)[C@H](OC(=O)NCC3CCCCC3)[C@@]2(C)O1
9 | < 150 nM | C=C[C@@]1(C)CC(=O)[C@]2(O)[C@@]3(C)[C@@H](O)CCC(C)(C)[C@@H]3[C@H](O)[C@H](OC(=O)NCCO)[C@@]2(C)O1

These compounds were tested against T1, Adenylate cyclase type 1 (assay: Ability to activate the conversion of [32P] ATP to [32P]-cyclic AMP mediated by adenylate cyclase 1). Conditions: not given.
Assay type: functional
Target sequence in this assay (Q08828 whole entry): as above

Row | Compound | EC50
10 | C=C[C@@]1(C)CC(=O)[C@]2(O)[C@@]3(C)[C@@H](O)CCC(C)(C)[C@@H]3[C@H](O)[C@H](OC(=O)NCCc3ccc(N)cc3)[C@@]2(C)O1 | < 2000 nM
11 | C=C[C@@]1(C)CC(=O)[C@]2(O)[C@@]3(C)[C@@H](O)CCC(C)(C)[C@@H]3[C@H](O)[C@H](OC(=O)NCCc3ccccc3)[C@@]2(C)O1 | > 2000 nM
12 | C=C[C@@]1(C)CC(=O)[C@]2(O)[C@@]3(C)[C@@H](O)CCC(C)(C)[C@@H]3[C@H](OC(=O)NCC3CCCCC3)[C@H](OC(C)=O)[C@@]2(C)O1 | > 2000 nM
13 | C=CCNC(=O)O[C@H]1[C@H]2C(C)(C)CC[C@H](O)[C@]2(C)[C@@]2(O)C(=O)C[C@](C)(C=C)O[C@]2(C)[C@H]1OC(C)=O | > 2000 nM
14 | C=C[C@@]1(C)CC(=O)[C@]2(O)[C@@]3(C)[C@@H](O)CCC(C)(C)[C@@H]3[C@H](O)[C@H](OC(=O)NCC(C)C)[C@@]2(C)O1 | > 2000 nM

Results, then the compound that gave them:

Row | EC50 | Compound
15 | > 2000 nM | C=C[C@@]1(C)CC(=O)[C@]2(O)[C@@]3(C)[C@@H](O)CCC(C)(C)[C@@H]3[C@H](O)[C@H](OC(=O)NCCN(C)C)[C@@]2(C)O1
16 | < 2000 nM | C=C[C@@]1(C)CC(=O)[C@]2(O)[C@@]3(C)[C@@H](O)CCC(C)(C)[C@@H]3[C@H](O)[C@H](OC(=O)NCCN3CCCCC3)[C@@]2(C)O1
17 | > 2000 nM | C=C[C@@]1(C)CC(=O)[C@]2(O)[C@@]3(C)[C@@H](O)CCC(C)(C)[C@@H]3[C@H](O)[C@H](OC(=O)NCC3CCCCC3)[C@@]2(C)O1
18 | < 2000 nM | C=C[C@@]1(C)CC(=O)[C@]2(O)[C@@]3(C)[C@@H](O)CCC(C)(C)[C@@H]3[C@H](O)[C@H](OC(=O)NCCO)[C@@]2(C)O1

Each compound was assayed against T1, Adenylate cyclase type 1 (assay: Conversion of [32P] ATP to [32P]-cyclic AMP mediated by adenylate cyclase 1). Conditions: read-out: EC50.
Assay type: functional
Target sequence in this assay (Q08828 whole entry): as above

Row | Compound | EC50
19 | C=C[C@@]1(C)CC(=O)[C@]2(O)[C@@]3(C)[C@@H](O)CCC(C)(C)[C@@H]3[C@H](O)[C@H](OC(=O)NCCc3ccc(N)cc3)[C@@]2(C)O1 | 1100 nM
20 | C=C[C@@]1(C)CC(=O)[C@]2(O)[C@@]3(C)[C@@H](O)CCC(C)(C)[C@@H]3[C@H](O)[C@H](OC(=O)NCCc3ccccc3)[C@@]2(C)O1 | 2100 nM
21 | C=C[C@@]1(C)CC(=O)[C@]2(O)[C@@]3(C)[C@@H](O)CCC(C)(C)[C@@H]3[C@H](OC(=O)NCC3CCCCC3)[C@H](OC(C)=O)[C@@]2(C)O1 | 6600 nM
22 | C=CCNC(=O)O[C@H]1[C@H]2C(C)(C)CC[C@H](O)[C@]2(C)[C@@]2(O)C(=O)C[C@](C)(C=C)O[C@]2(C)[C@H]1OC(C)=O | 4400 nM
23 | C=C[C@@]1(C)CC(=O)[C@]2(O)[C@@]3(C)[C@@H](O)CCC(C)(C)[C@@H]3[C@H](O)[C@H](OC(=O)NCC(C)C)[C@@]2(C)O1 | 2700 nM

The next lines start with the values.

Row | EC50 | Compound
24 | 2200 nM | C=C[C@@]1(C)CC(=O)[C@]2(O)[C@@]3(C)[C@@H](O)CCC(C)(C)[C@@H]3[C@H](O)[C@H](OC(=O)NCCN(C)C)[C@@]2(C)O1
25 | 1200 nM | C=C[C@@]1(C)CC(=O)[C@]2(O)[C@@]3(C)[C@@H](O)CCC(C)(C)[C@@H]3[C@H](O)[C@H](OC(=O)NCCN3CCCCC3)[C@@]2(C)O1
26 | 6400 nM | C=C[C@@]1(C)CC(=O)[C@]2(O)[C@@]3(C)[C@@H](O)CCC(C)(C)[C@@H]3[C@H](O)[C@H](OC(=O)NCC3CCCCC3)[C@@]2(C)O1
27 | 1400 nM | C=C[C@@]1(C)CC(=O)[C@]2(O)[C@@]3(C)[C@@H](O)CCC(C)(C)[C@@H]3[C@H](O)[C@H](OC(=O)NCCO)[C@@]2(C)O1

The compounds below were run against T1, Adenylate cyclase type 1 (assay: Maximum stimulation activity measured with 100 uM forskolin mediated by Adenylate cyclase 1). Conditions: not given.
Assay type: functional
Target sequence in this assay (Q08828 whole entry, looked up): as the sequence (Q08828 whole entry) above

Row | Activity | Compound
28 | 89% | C=C[C@@]1(C)CC(=O)[C@]2(O)[C@@]3(C)[C@@H](O)CCC(C)(C)[C@@H]3[C@H](O)[C@H](OC(=O)NCCN(C)C)[C@@]2(C)O1
29 | 81% | C=C[C@@]1(C)CC(=O)[C@]2(O)[C@@]3(C)[C@@H](O)CCC(C)(C)[C@@H]3[C@H](O)[C@H](OC(=O)NCCN3CCCCC3)[C@@]2(C)O1
30 | 68% | C=C[C@@]1(C)CC(=O)[C@]2(O)[C@@]3(C)[C@@H](O)CCC(C)(C)[C@@H]3[C@H](O)[C@H](OC(=O)NCCc3ccc(N)cc3)[C@@]2(C)O1
31 | 119% | C=C[C@@]1(C)CC(=O)[C@]2(O)[C@@]3(C)[C@@H](O)CCC(C)(C)[C@@H]3[C@H](O)[C@H](OC(=O)NCCO)[C@@]2(C)O1

What follows are compounds tested against T1, Adenylate cyclase type 1 (assay: as §1). Conditions: not given.
Target sequence in this assay (Q08828 whole entry): as above

Row | Compound | IC50
32 | C=C[C@@]1(C)CC(=O)[C@]2(O)[C@@]3(C)[C@@H](O)CCC(C)(C)[C@@H]3[C@H](O)[C@H](OC(=O)NCCc3ccc(N)cc3)[C@@]2(C)O1 | 64 nM
33 | C=C[C@@]1(C)CC(=O)[C@]2(O)[C@@]3(C)[C@@H](O)CCC(C)(C)[C@@H]3[C@H](O)[C@H](OC(=O)NCCc3ccccc3)[C@@]2(C)O1 | 251 nM
34 | C=C[C@@]1(C)CC(=O)[C@]2(O)[C@@]3(C)[C@@H](O)CCC(C)(C)[C@@H]3[C@H](OC(=O)NCC3CCCCC3)[C@H](OC(C)=O)[C@@]2(C)O1 | 117 nM
35 | C=CCNC(=O)O[C@H]1[C@H]2C(C)(C)CC[C@H](O)[C@]2(C)[C@@]2(O)C(=O)C[C@](C)(C=C)O[C@]2(C)[C@H]1OC(C)=O | 76 nM
36 | C=C[C@@]1(C)CC(=O)[C@]2(O)[C@@]3(C)[C@@H](O)CCC(C)(C)[C@@H]3[C@H](O)[C@H](OC(=O)NCC(C)C)[C@@]2(C)O1 | 112 nM

The next lines start with the values.

Row | IC50 | Compound
37 | 228 nM | C=C[C@@]1(C)CC(=O)[C@]2(O)[C@@]3(C)[C@@H](O)CCC(C)(C)[C@@H]3[C@H](O)[C@H](OC(=O)NCCN(C)C)[C@@]2(C)O1
38 | 184 nM | C=C[C@@]1(C)CC(=O)[C@]2(O)[C@@]3(C)[C@@H](O)CCC(C)(C)[C@@H]3[C@H](O)[C@H](OC(=O)NCCN3CCCCC3)[C@@]2(C)O1
39 | 1600 nM | C=C[C@@]1(C)CC(=O)[C@]2(O)[C@@]3(C)[C@@H](O)CCC(C)(C)[C@@H]3[C@H](O)[C@H](OC(=O)NCC3CCCCC3)[C@@]2(C)O1
40 | 43 nM | C=C[C@@]1(C)CC(=O)[C@]2(O)[C@@]3(C)[C@@H](O)CCC(C)(C)[C@@H]3[C@H](O)[C@H](OC(=O)NCCO)[C@@]2(C)O1

These compounds were tested against T1, Adenylate cyclase type 1 (assay: Maximum stimulation activity measured with 100 uM forskolin mediated by adenylate cyclase 1). Conditions: not given.
Assay type: functional
Target sequence in this assay (Q08828 whole entry, looked up): as the sequence (Q08828 whole entry) above

Row | Activity | Compound
41 | 44% | C=C[C@@]1(C)CC(=O)[C@]2(O)[C@@]3(C)[C@@H](O)CCC(C)(C)[C@@H]3[C@H](O)[C@H](OC(=O)NCC3CCCCC3)[C@@]2(C)O1
42 | 75% | C=C[C@@]1(C)CC(=O)[C@]2(O)[C@@]3(C)[C@@H](O)CCC(C)(C)[C@@H]3[C@H](O)[C@H](OC(=O)NCCc3ccccc3)[C@@]2(C)O1
43 | 74% | C=C[C@@]1(C)CC(=O)[C@]2(O)[C@@]3(C)[C@@H](O)CCC(C)(C)[C@@H]3[C@H](OC(=O)NCC3CCCCC3)[C@H](OC(C)=O)[C@@]2(C)O1
44 | 80% | C=CCNC(=O)O[C@H]1[C@H]2C(C)(C)CC[C@H](O)[C@]2(C)[C@@]2(O)C(=O)C[C@](C)(C=C)O[C@]2(C)[C@H]1OC(C)=O
45 | 72% | C=C[C@@]1(C)CC(=O)[C@]2(O)[C@@]3(C)[C@@H](O)CCC(C)(C)[C@@H]3[C@H](O)[C@H](OC(=O)NCC(C)C)[C@@]2(C)O1
